Reference: patent publication US20240342199A1, “COMBINATION THERAPIES TARGETING MITOCHONDRIA FOR CANCER THERAPY” (The Wistar Institute of Anatomy and Biology, priority 2014, published 2024)
Entries after “also recorded” stand apart in the source; their conditions may differ.

Assays:
[1] = tested on: PI3 kinase; details: concentration of 50 μM; cited from earlier work
[2] = tested on: PI4 kinase; details: concentration of 50 μM; cited from earlier work
[3] = tested on: PKC; details: concentration of 50 μM; cited from earlier work
[4] = tested on: MAP kinase; details: concentration of 50 μM; cited from earlier work
[5] = molecular target: c-Src (Homo sapiens, UniProt P12931); details: concentration of 50 μM; cited from earlier work
c-Src, sequence (P12931 whole entry, species assumed): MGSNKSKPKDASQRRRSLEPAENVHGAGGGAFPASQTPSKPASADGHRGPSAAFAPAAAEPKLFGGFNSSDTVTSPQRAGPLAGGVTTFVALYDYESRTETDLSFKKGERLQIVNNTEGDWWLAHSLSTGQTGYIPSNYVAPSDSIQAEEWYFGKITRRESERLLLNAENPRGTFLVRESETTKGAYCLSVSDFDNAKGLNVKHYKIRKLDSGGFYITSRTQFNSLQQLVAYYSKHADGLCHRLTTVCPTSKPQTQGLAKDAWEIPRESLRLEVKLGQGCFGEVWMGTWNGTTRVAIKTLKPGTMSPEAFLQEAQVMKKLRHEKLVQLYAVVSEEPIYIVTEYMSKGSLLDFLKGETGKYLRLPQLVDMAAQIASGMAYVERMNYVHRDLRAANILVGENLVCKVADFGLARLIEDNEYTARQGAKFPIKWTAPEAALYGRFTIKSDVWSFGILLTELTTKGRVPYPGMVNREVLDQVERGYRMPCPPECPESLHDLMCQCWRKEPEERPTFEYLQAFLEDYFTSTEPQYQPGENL

[6] = tested on: LN229 cells; assay: Global metabolomics screening; assay type: cell-based, Human; details: 10 μM for 48 h
Protocol: Metabolomics screen and Reverse Phase Protein Array (RPPA). Changes in expression of 301 individual metabolites in LN229 cells treated with PX-866 (10 μM for 48 h) were determined in a global metabolomics screening as described previously. For RPPA, PC3 or LN229 cells were treated with vehicle, PX-866 (10 μM) or the combination of PX-866 plus Gamitrinib (5 μM) for 24 h. Data in triplicate samples were normalized for protein loading, converted to linear values and then log2 transformed.
Statistical analysis. Data were analyzed using the two-sided unpaired/tests using a GraphPad software package (Prism 4.0) for Windows. Data are expressed as mean±SEM of replicates of a representative experiment out of at least two independent determinations. A p value of ≤0.05 was considered as statistically significant. For RPPA screens, the False Discovery Rate (FDR) values were estimated using Benjamini-Hochberg correction for multiple testing and changes with FDR<20% of at least 1.2 fold were called statistically significant. […] However, biochemicals that were detected in all samples from one or more groups, but not in samples from other groups, were assumed to be near the lower limit of detection in the groups in which they were not detected. In this case, the lowest detected level of these biochemicals was imputed for samples in which that biochemical was not detected. […]

[7] = tested on: LN229 or PC3 cells; assay: Analysis of bioenergetics (ATP, glucose, lactate, oxygen consumption); assay type: cell-based, Human
[8] = tested on: GBM organotypic cultures; assay: Tumor kinome transcription (OpenArray real-time PCR) in GBM organotypic cultures; assay type: cell-based, Human
Protocol: Organotypic cultures. Short-term organotypic cultures from the different patient samples were established as described previously. […]
Bioinformatics analysis. Transcriptional changes in the human kinome following PI3K inhibition were analyzed using OpenArray real-time PCR amplification. […] Ct values from the experiment were exported from BioTrove OpenArray Real-Time qPCR Analysis Software v1.0.4. ΔΔCt value method was used to calculate fold changes between sample pairs with endogenous control Ct value calculated as average among 15 endogenous controls on the array: ALAS1, B2M, CASC3, G6PD, GAPDH, GUSB, HMBS, HPRT1, IPO8, POLR2A, PPIA, RPLP0, TFRC, UBE2D2, and YWHAZ. P-values for differential expression were calculated using fold changes of 15 endogenous controls as a null distribution.

[9] = tested on: tumor cells; assay: Senescence markers (SA-β-Gal, PML nuclear bodies); assay type: cell-based; details: treated tumor cells
[10] = tested on: LN229 or PC3 cells; assay: Cell cycle, proliferation and viability after PI3K inhibition; assay type: cell-based, Human
Protocol: (§1) Mitochondrial integrity and cell viability. LN229 or U251 cells were treated with vehicle (DMSO), PI3K inhibitors, BEZ (0.5 μM) or LY294002 (50 μM), alone or combination with Gamitrinib (0.5-5 μM, respectively) for 24 h, and analyzed for changes in mitochondrial membrane potential by JC-1 staining and multiparametric flow cytometry, as described. For cell viability, LN229, U87 or U251 cells treated with vehicle, PI3K inhibitors BEZ or LY294002, or, alternatively, transfected with control cDNA or Δ-p85 dominant negative PI3K mutant, alone or in combination with Gamitrinib, were examined by a 3 (4,5-dimethyl-thyazoyl-2-yl)2,5 diphenyltetrazolium bromide (MTT) colorimetric assay. Changes in cell viability in LN229 cells exposed to PX-866 (0-25 μM) were monitored by Trypan blue staining, or, alternatively, MTT. For apoptosis, LN229 cells (1×10^6) treated with vehicle, Gamitrinib or PI3K inhibitors (BEZ, LY294002), alone or in combination for 24 h, were labeled for annexin V plus propidium iodide (PI) (BD Biosciences), and analyzed by multiparametric flow cytometry (BD), as described. Alternatively, cytosolic fractions isolated from treated tumor cells were analyzed for released cytochrome c, by Western blotting. For analysis of colony-forming ability, PC3 or LN229 cells were treated with vehicle (Veh) or PX-866 (10 μM) and analyzed in a colony formation assay after 12 days. Colonies were stained with crystal violet. In some experiments, LN229 cells treated with PX-866 (0-25 μM) were analyzed for DNA content by PI staining and flow cytometry.

[11] = tested on: PC3 or LN229 cells; assay: Colony formation assay; assay type: cell-based, Human; details: 10 μM, 12 days, compared with control cultures
Protocol: as §1, with “Colonies were stained with crystal violet. In some experiments, LN229 cells treated with PX-866 (0-25 μM) were analyzed for DNA content by PI staining and flow cytometry.” left out

[12] = tested on: Akt phosphorylation; assay: Akt phosphorylation in tumor cell lines by Western blotting; assay type: cell-based, Human; details: high (10 μM) and low (0.8 μM) concentrations, within 24 hours
[13] = tested on: Akt2 (Ser474) in cytosol and mitochondria; assay: Phosphorylated Akt in cytosol and mitochondrial extracts by Western blotting; assay type: cell-based, Human; details: cytosol and mitochondrial extracts, 48 h
Protocol: Subcellular and submitochondrial fractionation. Mitochondrial fractions were isolated using an ApoAlertTM cell fractionation kit (CLONTECH), as described. Submitochondrial fractions comprising outer membrane (OM), inner membrane (IM), inter-membrane space (IMS) and matrix were prepared as described.

[14] = tested on: CypD; assay: CypD level and Ser phosphorylation in reconstituted LN229 cells; assay type: cell-based, Human
Excerpt: Mutant constructs were confirmed by DNA sequencing and transfected in CypD-depleted cells for reconstitution experiments. In some experiments, CypD depleted LN229 cells were transfected with WT or mutant CypD constructs and analyzed for bioenergetics (glucose utilization, oxygen consumption, ATP production) or cell viability (JC1 or Annexin V multiparametri staining, cytochrome c release) readouts.

[15] = tested on: LN229 cells; assay: High-throughput screening: cell viability (resazurin), compounds with DMSO or Gamitrinib; assay type: cell-based, Human; details: Gamitrinib 1 μM in combination
Protocol: High-throughput screening and synergy experiments. Compounds for the molecular targeted cancer therapeutics were either purchased from SelleckChem or acquired under Material Transfer Agreement (MTA) with the Wistar Institute MTA. Compounds were suspended in DMSO. The purity and identity of the compounds was confirmed by LC/MS for a fraction of the compounds. Source plates with a 10 point dilution series (5-fold dilutions, ranging from 10-0.0001 μmol/L) were prepared for screening. […] Cell viability was determined by the addition of resazurin to a final concentration of 50 μM and incubation for 8 h. Fluorescence intensity (excitation, 560 nm, emission, 590 nm) was determined on an Envision Xcite Multilabel Reader (Perkin-Elmer), and the fractional growth inhibition was determined by normalizing assay wells to the aggregated average responses of positive control (10 μM doxorubicin) and negative control (0.2% DMSO) treatments (n=12).

[16] = tested on: Ser473-phosphorylated Akt (pAkt); assay: Ser473-phosphorylated Akt in patient-derived organotypic cultures; assay type: cell-based, Human; details: Gamitrinib added to PI3K inhibitor-treated tumor organoids
Protocol: Organotypic cultures. Short-term organotypic cultures from the different patient samples were established as described previously. Briefly, precise thick tissue slices (300 μm) were obtained from each case by vibratome serial cutting (VT1200, Leica Microsystems, Milan, Italy), and cultured in six-well plates on organotypic inserts (Millicell PICM ORG, Merck Millipore) for up to 48 h in 1 ml of Ham-F12 complete medium supplemented with vehicle (DMSO, 2.5 μl), pan-PI3K inhibitor LY294002 (50 or 100 μM) or PX-886 (2.5, 5 or 10 μM), or mitochondrial-targeted small molecule Heat Shock Protein-90 (Hsp90) inhibitor, 10 Gamitrinib (GA mitochondrial matrix inhibitor, 10 or 25 μM), or the combination of PX-886 plus Gamitrinib (each agent used at 10 μM). At the end of the experiment, one tissue slice per condition was formalin-fixed and paraffin-embedded (FFPE), and processed for morphological and immunohistochemical analysis. An additional tissue slice collected at the end of the experiment was embedded in optimal cutting temperature, and snap-frozen for molecular or immunofluorescence studies.

[17] = tested on: LN229 cells; assay: Bliss independence analysis of Gamitrinib and kinase inhibitors; assay type: cell-based, Human; details: Gamitrinib with NVP-BEZ235, GDC-0941 or AZD6482, 7×7 matrix, 18 h
Protocol: A synergistic anticancer activity of the combination of Gamitrinib and selected kinase inhibitors was further assessed by Bliss independence analysis. For these experiments, LN229 cells were treated with Gamitrinib (concentration range 2-0.008 μmol/L) and selected kinase inhibitors (concentration range 2-0.008 μmol/L) in a 7×7 matrix for 18 h at 37° C. Cell viability was measured by addition of resazurin, and the fractional growth inhibition under the various conditions tested was determined as described above. The Bliss expectation (E) for a combined response was calculated by the equation: E=(A+B)−(A×B) where A and B are the fractional growth inhibitions of drug A and B at a given concentration. […] Each synergy experiment was done two independent times, in duplicate.

[18] = PX-866 (10 μM), AZD6482 (10 μM) or GDC0941 (2 μM) for 48 h

Q: Which PI3 kinase activity [1] does the source give for `O=c1cc(N2CCOCC2)oc2c(-c3ccccc3)cccc12` [LY294002, 2-(4-morpholinyl)-8-phenyl-4H-1-benzopyran-4-one] here?
A: Its PI3 kinase activity is “specifically abolished PI3 kinase activity”.

Q: And the “inhibition of PI4 kinase” value [2]?
A: The value was “did not inhibit”.

Q: What about the “inhibition of PKC” value [3] of the same molecule?
A: The value was “did not inhibit”.

Q: What about the “inhibition of MAP kinase” value [4] of the same molecule?
A: The value was “did not inhibit”.

Q: And the “inhibition of c-Src” value [5]?
A: Its value is “did not inhibit”.

Q: What does the source list for `C=CCN(/C=C1/C(=O)O[C@H](COC)[C@@]2(C)C1=C(O)C(=O)C1=C2[C@H](OC(C)=O)C[C@]2(C)C(=O)CC[C@@H]12)CC=C` [PX-866]?
A: metabolome profile [6]: extensive metabolic reprogramming; oxygen consumption ([7]; 10 μM for 48 h): suppression of oxygen consumption; ATP production [7, 18]: reduced ATP production; glucose utilization [7, 18]: less glucose utilization; lactate production [7, 18]: less; expression of kinome genes ([8]; PX-866 (10 μM) for 48 h, GBM organotypic cultures): increased the expression of genes associated with growth factor signaling; PML nuclear body number [9]: higher PML nuclear body number; senescence-associated β-galactosidase staining (SA-β-Gal) [9]: increased β-galactosidase staining; cell cycle (DNA content) ([10]; 10 μM): arrested in the G1 phase of the cell cycle; proliferation (direct cell counting) ([10]; 10 μM): reduced proliferation; viability (Trypan blue, MTT) ([10]; LN229 cells, 48 h): without significant decrease in viability; long-term colony forming ability [11]: unaffected; Akt phosphorylation [12]: induced Akt phosphorylation; phosphorylation of Akt2 on Ser474 [13]: robust and concentration-dependent isoform-specific phosphorylation of Akt2 on Ser474; phosphorylated Ser (pSer) reactivity of WT CypD ([14]; immunoprecipitated from reconstituted LN229 cells): increased this response; also recorded: increased reactivity with an antibody to pSer; levels of endogenous or overexpressed CypD ([14]; reconstituted cells, 10 μM for 48 h): did not affect

Q: With Gamitrinib as the molecule, how does the “effect on anticancer activity of PI3K/Akt/MTOR pathway antagonists” value [15] read?
A: The value was “potently enhanced the anticancer activity”.

Q: What about the “transcriptional changes induced by PI3K inhibition” value ([8]; Gamitrinib added to PX-866-treated tumor organoids) of the same molecule?
A: The value was “largely reversed the transcriptional changes induced by PI3K inhibition”.

Q: And the “reactivation of Akt induced by PI3K inhibition” value [16]?
A: Its value is “prevented the reactivation of Akt”.

Q: What about the “tumor cell proliferation, Bliss independence analysis” value [17] of the same molecule?
A: The value was “synergistically inhibited tumor cell proliferation”.
